Converted amounts (≈) assume the structure as drawn.

For test [1], the system named is Staphylococcus epidermidis A TCC 14990. The test is described as follows: Broth dilution MIC. In kind it is cell-based. Particulars: ATCC14990, S. epidermidis, read-out: Minimum Inhibitory Concentration. The source says:
(§1) Establishing the MIC of antimicrobials is a necessary step in the process of establishing effective use concentrations. Approved standards for this activity with antibiotics are published by NCCLS. These standards are primarily intended for use in clinical settings with patient isolates. However, they represent a consensus methodology for best practice in determining MICs that are reproducible and defensible. The principles upon which they are based provide a sound framework for determining the MIC for the test.
(§2) The broth dilution method was used to measure quantitatively the in vitro activity of an antimicrobial agent against a given microbial isolate. To perform the test, a series of tubes were prepared with a broth to which various concentrations of the antimicrobial agent were added. The tubes were then inoculated with a standardized suspension of the test organism. After incubation the tubes were examined and the minimal inhibitory concentration (MIC) was determined.
(§3) The following organism were used: Acinetobacter baumanii A TCC 19606; Staphylococcus epidermidis A TCC 14990; Staphylococcus aureus ATCC 6538; Methicillin-resistant Staphylococcus aureus ATCC 33591; Escherichia coli ATCC 8739; Staphylococcus capitis ATCC 35661; or Staphylococcus schleiferi ATCC 43808.
(In broth dilution the organism is exposed to a series of concentrations in liquid medium.)

For test [2], the system named is Methicillin-resistant Staphylococcus aureus ATCC 33591. The test is described as follows: Broth dilution MIC. The class given is cell-based. Particulars: ATCC 33591 / MRSA, read-out: Minimum Inhibitory Concentration.
Source text: as §1, §2, §3

In test [3] the test system is Staphylococcus schleiferi ATCC 43808. The test is described as follows: Broth dilution MIC. In kind it is cell-based. The settings on record: ATCC43808, read-out: Minimum Inhibitory Concentration.
Source text: as §1, §2, §3

For test [4], the system named is Escherichia coli ATCC 8739. The test is described as follows: Broth dilution MIC. The settings on record: ATCC8739, E. coli, read-out: Minimum Inhibitory Concentration. In kind it is cell-based.
Source text: as §1, §2, §3

Test [5] relates to Acinetobacter baumanii A TCC 19606. Nature of the test: Broth dilution MIC. In kind it is cell-based. The settings on record: Acinetobacter baumannii, ATCC19606, read-out: Minimum Inhibitory Concentration.
Source text: as §1, §2, §3

Test [6] concerns Staphylococcus aureus ATCC 6538. The test is described as follows: Broth dilution MIC. Particulars: ATCC6538, S. aureus, read-out: Minimum Inhibitory Concentration. The class given is cell-based.
Source text: as §1, §2, §3

Test [7] relates to Staphylococcus capitis ATCC 35661. The test is described as follows: Broth dilution MIC. In kind it is cell-based. Particulars: ATCC35661, S. capitis, read-out: Minimum Inhibitory Concentration.
Source text: as §1, §2, §3

The subject of test [8] is myofibroblast formation. Particulars: animal studies of capsular contracture with breast implants (Ajmal et al. 2003); cited from earlier work.

On to `CO[C@H]1/C=C/O[C@@]2(C)Oc3c(C)c(O)c4c(O)c(c(/C=N/N5CCN(C)CC5)c(O)c4c3C2=O)NC(=O)/C(C)=C\C=C\[C@H](C)[C@H](O)[C@@H](C)[C@@H](O)[C@@H](C)[C@H](OC(C)=O)[C@@H]1C` [Rifampin], for which the MIC in test [1] came out at 0.016 µg/mL (≈ 0.0194 µM); in test [2], 2.06 µg/mL (≈ 2.5 µM); in test [3], 0.016 µg/mL (≈ 0.0194 µM); in test [4] it was 2.06 µg/mL (≈ 2.5 µM); in test [5], 0.129 µg/mL (≈ 0.157 µM); in test [6], 0.016 µg/mL (≈ 0.0194 µM). For the same compound, the MIC in test [7] amounted to 0.016 µg/mL (≈ 0.0194 µM).
On to `CN(C)c1ccc(O)c2c1C[C@H]1C[C@H]3[C@H](N(C)C)C(O)=C(C(N)=O)C(=O)[C@@]3(O)C(O)=C1C2=O` [Minocycline], for which the MIC in test [1] came out at 0.017 µg/mL (≈ 0.0372 µM); in test [2], 2.23 µg/mL (≈ 4.88 µM); in test [3] it was 0.017 µg/mL (≈ 0.0372 µM); in test [4], 2.23 µg/mL (≈ 4.88 µM); in test [5], 0.14 µg/mL (≈ 0.306 µM); in test [6], 0.017 µg/mL (≈ 0.0372 µM). The MIC in test [7] is 0.017 µg/mL (≈ 0.0372 µM).
`O=S(=O)([O-])CCS.[Na+]` [Mesna, sodium 2-mercaptoethane sulfonate]: the myofibroblast formation result in test [8] is recorded as “diminish myofibroblast formation”.
